Test results as given in BindingDB's records for doi:10.1007/s00044-008-9125-0 (n/a, 2009).

assay: Inhibition of Bos taurus (bovine) heart cAMP-dependent phosphodiesterase assessed as inhibition of cyclic AMP to 5' AMP after 20 min by spectrophotometry

`O=c1c2ccccc2nc(-c2ccccc2)n1-c1nc2ccc([N+](=O)[O-])cc2s1` and `O=c1c2ccccc2nc(-c2ccccc2)n1-c1nc2ccc(Br)cc2s1` are within 1.5-fold of each other in IC50: 2640 µM for the first, 2130 µM for the second.

`CCOc1ccc2sc(-n3c(-c4ccccc4)nc4c(Br)cc(Br)cc4c3=O)nc2c1` and `CCOc1ccc2nc(-n3c(-c4ccccc4)nc4c(Br)cc(Br)cc4c3=O)sc2c1` are within 1.5-fold of each other in IC50: 2150 µM for the first, 2120 µM for the second.

`Cc1ccc2sc(-n3c(-c4ccccc4)nc4ccccc4c3=O)nc2c1` and `O=c1c2ccccc2nc(-c2ccccc2)n1-c1nc2cc(Cl)ccc2s1` are within 1.5-fold of each other in IC50: 2270 µM for the first, 2110 µM for the second.

`COc1ccc2sc(-n3c(-c4ccccc4)nc4ccccc4c3=O)nc2c1` and `COc1ccc2nc(-n3c(-c4ccccc4)nc4ccccc4c3=O)sc2c1` are within 1.5-fold of each other in IC50: 2330 µM for the first, 2420 µM for the second.

`COc1ccc2nc(-n3c(-c4ccccc4)nc4c(Br)cc(Br)cc4c3=O)sc2c1` and `COc1ccc2sc(-n3c(-c4ccccc4)nc4c(Br)cc(Br)cc4c3=O)nc2c1` are within 1.5-fold of each other in IC50: 2120 µM for the first, 2090 µM for the second.

`CCOc1cccc2sc(-n3c(-c4ccccc4)nc4ccccc4c3=O)nc12` and `COc1cccc2sc(-n3c(-c4ccccc4)nc4ccccc4c3=O)nc12` are within 1.5-fold of each other in IC50: 2420 µM for the first, 2320 µM for the second.

`CCOc1ccc2nc(-n3c(-c4ccccc4)nc4ccccc4c3=O)sc2c1` and `CCOc1ccc2sc(-n3c(-c4ccccc4)nc4ccccc4c3=O)nc2c1` are within 1.5-fold of each other in IC50: 2430 µM for the first, 2490 µM for the second.

`Cc1ccc2sc(-n3c(-c4ccccc4)nc4c(Br)cc(Br)cc4c3=O)nc2c1` and `O=c1c2cc(Br)cc(Br)c2nc(-c2ccccc2)n1-c1nc2cc(Cl)ccc2s1` are within 1.5-fold of each other in IC50: 2020 µM for the first, 1440 µM for the second.

`CCOc1cccc2sc(-n3c(-c4ccccc4)nc4c(Br)cc(Br)cc4c3=O)nc12` and `COc1cccc2sc(-n3c(-c4ccccc4)nc4c(Br)cc(Br)cc4c3=O)nc12` are within 1.5-fold of each other in IC50: 2160 µM for the first, 2070 µM for the second.

`O=c1c2cc(Br)cc(Br)c2nc(-c2ccccc2)n1-c1nc2ccc([N+](=O)[O-])cc2s1` and `O=c1c2cc(Br)cc(Br)c2nc(-c2ccccc2)n1-c1nc2ccc(Br)cc2s1` are within 1.5-fold of each other in IC50: 1520 µM for the first, 1640 µM for the second.

`O=c1c2cc(Br)cc(Br)c2nc(-c2ccccc2)n1-c1nc2ccccc2s1` and `Cc1cccc2sc(-n3c(-c4ccccc4)nc4c(Br)cc(Br)cc4c3=O)nc12` are within 1.5-fold of each other in IC50: 1930 µM for the first, 2030 µM for the second.

`O=c1c2ccccc2nc(-c2ccccc2)n1-c1nc2ccccc2s1` and `Cc1cccc2sc(-n3c(-c4ccccc4)nc4ccccc4c3=O)nc12` are within 1.5-fold of each other in IC50: 2100 µM for the first, 2280 µM for the second.

`Cc1cc(C)c2nc(-n3c(-c4ccccc4)nc4c(Br)cc(Br)cc4c3=O)sc2c1` and `Cc1cc(C)c2nc(-n3c(-c4ccccc4)nc4ccccc4c3=O)sc2c1` are within 1.5-fold of each other in IC50: 2070 µM for the first, 2410 µM for the second.
